From ChEMBL document CHEMBL5331058, “Review of bioactivity and structure-activity relationship on baicalein (5,6,7-trihydroxyflavone) and wogonin (5,7-dihydroxy-8-methoxyflavone) derivatives: Structural modifications inspired from flavonoids in Scutellaria baicalensis” (Eur J Med Chem, 2022)
pEC50, pIC50: −log10 of the molar value. In brackets after ≈: the same amount, converted by molar mass.

Experiments:
PC-12 [1] = assay: Antioxidant activity in H2O2-induced cell damage in rat PC12 cells at 50 uM; type: functional
[2] = Permeability of the compound across blood brain barrier at pH 7.4 incubated for 4 hrs by parallel artificial membrane permeation assay; type: ADME; conditions: pampa, pH 7.4, 4 h
Acetylcholinesterase [3] = biological target: T1, Acetylcholinesterase (Rattus norvegicus, UniProt P37136); assay: Inhibition of rat cortex homogenate AChE preincubated for 5 mins followed by compound addition and measured after 15 mins by Ellman's method
T1 sequence (P37136 whole entry): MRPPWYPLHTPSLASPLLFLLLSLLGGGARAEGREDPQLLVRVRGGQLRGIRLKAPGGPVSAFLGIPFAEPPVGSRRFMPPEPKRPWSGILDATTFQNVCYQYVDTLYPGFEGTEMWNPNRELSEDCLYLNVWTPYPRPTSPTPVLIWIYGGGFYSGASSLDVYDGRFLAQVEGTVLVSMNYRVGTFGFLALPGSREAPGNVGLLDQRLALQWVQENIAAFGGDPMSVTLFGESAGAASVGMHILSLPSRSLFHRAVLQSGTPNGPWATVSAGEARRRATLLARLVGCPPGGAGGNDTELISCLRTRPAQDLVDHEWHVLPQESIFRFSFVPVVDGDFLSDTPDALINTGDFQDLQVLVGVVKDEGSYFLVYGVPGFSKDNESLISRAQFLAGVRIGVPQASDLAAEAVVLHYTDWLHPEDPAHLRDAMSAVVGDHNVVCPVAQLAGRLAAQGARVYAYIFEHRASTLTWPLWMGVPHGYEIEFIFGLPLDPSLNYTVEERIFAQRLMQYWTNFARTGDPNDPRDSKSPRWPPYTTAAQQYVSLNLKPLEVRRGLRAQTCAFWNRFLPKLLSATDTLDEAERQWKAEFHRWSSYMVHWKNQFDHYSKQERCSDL

Butyrylcholinesterase = Butyrylcholinesterase (Rattus norvegicus, UniProt Q9JKC1); assay: Inhibition of rat serum homogenate BuChE preincubated for 5 mins followed by compound addition and measured after 15 mins by Ellman's method; type: cell-free
[4] = biological target: Amyloid-beta precursor protein (Homo sapiens) (UniProt P05067); assay: Disaggregation of self-induced amyloid beta (unknown origin) fibrils relative to control
Acetylcholinesterase [5] = biological target: Acetylcholinesterase (Electrophorus electricus, UniProt O42275); assay: Inhibition of electric eel AChE
[6] = biological target: Amyloid-beta precursor protein (Homo sapiens) (UniProt P05067); assay: Inhibition of Cu2+ induced amyloid beta (unknown origin) aggregation relative to control; conditions: concentration not given here
[7] = biological target: Amyloid-beta precursor protein (Homo sapiens) (UniProt P05067); assay: Inhibition of self-induced amyloid beta (unknown origin) aggregation relative to control; conditions: concentration not given here
Acetylcholinesterase [8] = biological target: T2, Acetylcholinesterase (Homo sapiens, UniProt P22303); assay: Inhibition of AChE (unknown origin)
Acetylcholinesterase [9] = biological target: T2, Acetylcholinesterase; assay: Inhibition of human AChE
[10] = biological target: Amyloid-beta precursor protein (Homo sapiens) (UniProt P05067); assay: Disaggregation of Cu2+ induced amyloid beta (unknown origin) fibrils relative to control
Influenza A virus = assay: Antiviral activity against influenza A virus H1N1 infected in MDCK cells assessed as reduction in virus induced cytopathic effect by CPE assay; type: functional, organism-based
Staphylococcus aureus = assay: Antibacterial activity against Staphylococcus aureus assessed as bacterial growth inhibition incubated for 16 hrs; type: functional
Escherichia coli = assay: Antibacterial activity against Escherichia coli assessed as bacterial growth inhibition; type: functional
Candida albicans = assay: Antifungal activity against Candida albicans assessed as reduction in fungal growth incubated for 16 hrs by microdilution method; type: functional
[11] = Antioxidant activity assessed as DPPH radical scavenging activity; type: functional
[12] = Aqueous solubility of compound by UV spectroscopy method; type: physicochemical; conditions: water
PC-12 [13] = assay: Cytotoxicity against H2O2-induced cell damage in rat PC12 cells assessed as reduction in cell viability at 50 uM incubated for 24 hrs by MTT assay relative to control; type: functional
SH-SY5Y [14] = assay: Neuroprotective activity against H2O2-induced cell damage in human SH-SY5Y cells assessed as cell viability preincubated for 36 hrs followed by H2O2 addition and measured after 12 hrs by MTT assay; type: functional, cell-based
SH-SY5Y [15] = assay: Neuroprotective activity against H2O2-induced cell damage in human SH-SY5Y cells assessed as reduction in cell viability preincubated for 36 hrs followed by H2O2 addition and measured after 12 hrs by MTT assay; type: functional, cell-based
Acetylcholinesterase [16] = biological target: T2, Acetylcholinesterase; assay: Inhibition of human AChE by Ellman's spectrophotometric method
MGC-803 = assay: Antiproliferative activity against human MGC-803 cells assessed as reduction in cell viability incubated for 48 hrs by MTT assay; type: functional, cell-based; conditions: MGC-803, 48 h
HGC-27 = assay: Antiproliferative activity against human HGC-27 cells assessed as reduction in cell viability incubated for 48 hrs by MTT assay; type: functional, cell-based; conditions: HGC-27, 48 h
[17] = biological target: Thymic stromal lymphopoietin (Homo sapiens) (UniProt Q969D9); assay: Inhibition of N-terminal FLAG tagged/C-terminal 6 His tagged human TSLP at 1 uM preincubated for 2 hrs followed by compound addition and measured after 18 hrs by ELISA method relative to control; conditions: time 20.0 hrs
Alpha glucosidase [18] = biological target: T3, Alpha glucosidase (Homo sapiens, UniProt O43451+P10253+P14410+Q2M2H8); assay: Inhibition of alpha glucosidase (unknown origin); type: protein assay
HepG2 = assay: Antitumor activity against human HepG2 cells assessed as reduction in cell viability at 25 uM by colorimetric MTT assay relative to control; type: functional
DU-145 = assay: Anticancer activity against human DU-145 cells assessed as inhibition of cell growth at 100 uM by colorimetric MTT assay relative to control; type: functional; design: scale not given: the % may be the effect or the level left
Alpha glucosidase [19] = biological target: T3, Alpha glucosidase; assay: Inhibition of alpha glucosidase (unknown origin) spectrophotometric analysis; type: protein assay

Sequence of Amyloid-beta precursor protein (Homo sapiens) (P05067 whole entry): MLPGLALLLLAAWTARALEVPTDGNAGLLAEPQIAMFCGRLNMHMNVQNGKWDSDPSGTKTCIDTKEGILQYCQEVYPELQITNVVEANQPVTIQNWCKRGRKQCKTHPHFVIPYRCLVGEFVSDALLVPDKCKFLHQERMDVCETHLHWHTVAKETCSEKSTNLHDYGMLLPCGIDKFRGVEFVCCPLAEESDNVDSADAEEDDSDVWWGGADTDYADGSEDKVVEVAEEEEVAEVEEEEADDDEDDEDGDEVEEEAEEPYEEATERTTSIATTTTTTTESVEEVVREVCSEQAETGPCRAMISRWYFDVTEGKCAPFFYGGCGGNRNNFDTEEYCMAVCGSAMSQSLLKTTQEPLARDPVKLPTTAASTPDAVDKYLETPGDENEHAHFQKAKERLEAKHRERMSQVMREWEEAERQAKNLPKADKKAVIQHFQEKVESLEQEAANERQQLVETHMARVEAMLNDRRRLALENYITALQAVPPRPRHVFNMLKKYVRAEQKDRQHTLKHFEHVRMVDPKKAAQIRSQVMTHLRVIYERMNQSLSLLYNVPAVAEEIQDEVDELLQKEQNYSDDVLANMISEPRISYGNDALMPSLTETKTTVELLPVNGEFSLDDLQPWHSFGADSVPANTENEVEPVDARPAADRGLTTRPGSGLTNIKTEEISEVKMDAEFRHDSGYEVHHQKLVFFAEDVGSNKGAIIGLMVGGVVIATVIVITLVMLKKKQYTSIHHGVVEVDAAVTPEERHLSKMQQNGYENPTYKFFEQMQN
T2 sequence (P22303 whole entry): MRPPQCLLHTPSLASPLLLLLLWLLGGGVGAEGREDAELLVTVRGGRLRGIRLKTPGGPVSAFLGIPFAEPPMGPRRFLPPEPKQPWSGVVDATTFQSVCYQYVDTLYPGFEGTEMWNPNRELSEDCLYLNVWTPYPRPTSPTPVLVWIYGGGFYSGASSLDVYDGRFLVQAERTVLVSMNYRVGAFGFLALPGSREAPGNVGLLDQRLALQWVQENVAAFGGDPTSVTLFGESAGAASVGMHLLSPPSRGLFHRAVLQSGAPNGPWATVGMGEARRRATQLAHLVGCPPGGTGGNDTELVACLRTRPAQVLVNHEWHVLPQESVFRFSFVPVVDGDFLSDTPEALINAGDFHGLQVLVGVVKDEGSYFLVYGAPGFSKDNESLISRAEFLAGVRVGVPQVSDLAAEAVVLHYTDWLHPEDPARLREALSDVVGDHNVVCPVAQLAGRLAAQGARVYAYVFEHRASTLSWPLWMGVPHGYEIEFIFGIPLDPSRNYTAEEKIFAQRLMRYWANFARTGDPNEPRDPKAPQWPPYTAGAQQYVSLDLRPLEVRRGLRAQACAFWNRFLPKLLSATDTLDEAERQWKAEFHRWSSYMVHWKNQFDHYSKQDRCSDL
Sequence of Butyrylcholinesterase (Q9JKC1 whole entry): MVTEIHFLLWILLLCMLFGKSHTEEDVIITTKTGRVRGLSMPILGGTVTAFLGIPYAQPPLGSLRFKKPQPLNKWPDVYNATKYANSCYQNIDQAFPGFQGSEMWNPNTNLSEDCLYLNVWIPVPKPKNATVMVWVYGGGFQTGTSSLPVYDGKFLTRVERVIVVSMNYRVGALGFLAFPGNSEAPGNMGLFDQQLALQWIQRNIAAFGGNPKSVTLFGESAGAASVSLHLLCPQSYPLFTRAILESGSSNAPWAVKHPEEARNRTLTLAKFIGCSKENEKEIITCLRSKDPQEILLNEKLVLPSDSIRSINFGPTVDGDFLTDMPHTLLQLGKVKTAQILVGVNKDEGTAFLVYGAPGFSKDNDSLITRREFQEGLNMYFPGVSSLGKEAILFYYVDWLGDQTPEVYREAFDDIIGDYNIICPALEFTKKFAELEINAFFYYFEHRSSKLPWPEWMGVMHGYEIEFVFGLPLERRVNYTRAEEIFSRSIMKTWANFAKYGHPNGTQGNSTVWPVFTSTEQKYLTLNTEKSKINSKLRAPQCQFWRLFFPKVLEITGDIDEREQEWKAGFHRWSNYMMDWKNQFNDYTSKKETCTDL
Sequence of Thymic stromal lymphopoietin (Homo sapiens) (Q969D9 whole entry): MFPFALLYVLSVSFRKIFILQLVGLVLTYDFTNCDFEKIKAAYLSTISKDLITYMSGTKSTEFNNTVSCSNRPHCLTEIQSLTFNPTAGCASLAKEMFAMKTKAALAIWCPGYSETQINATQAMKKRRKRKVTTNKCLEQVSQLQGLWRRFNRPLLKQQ
Sequence of Acetylcholinesterase (Electrophorus electricus, UniProt O42275) (O42275 whole entry): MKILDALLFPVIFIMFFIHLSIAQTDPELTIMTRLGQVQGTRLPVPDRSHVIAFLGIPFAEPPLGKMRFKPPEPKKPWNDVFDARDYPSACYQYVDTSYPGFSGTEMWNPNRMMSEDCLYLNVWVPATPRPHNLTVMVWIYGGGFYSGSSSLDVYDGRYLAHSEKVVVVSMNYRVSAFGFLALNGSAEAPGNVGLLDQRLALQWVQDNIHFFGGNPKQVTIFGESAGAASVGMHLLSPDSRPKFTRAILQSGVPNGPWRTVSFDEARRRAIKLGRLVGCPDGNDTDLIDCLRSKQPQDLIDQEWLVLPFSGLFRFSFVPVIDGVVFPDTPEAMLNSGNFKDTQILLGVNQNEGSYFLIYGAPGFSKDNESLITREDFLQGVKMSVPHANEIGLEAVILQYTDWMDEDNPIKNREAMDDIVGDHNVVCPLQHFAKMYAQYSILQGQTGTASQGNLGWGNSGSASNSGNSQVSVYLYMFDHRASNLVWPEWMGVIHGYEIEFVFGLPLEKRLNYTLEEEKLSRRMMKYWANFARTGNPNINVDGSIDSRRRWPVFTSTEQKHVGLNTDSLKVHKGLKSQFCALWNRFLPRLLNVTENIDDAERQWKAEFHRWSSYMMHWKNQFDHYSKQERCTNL

CC(C)N(CCOc1c(O)cc2oc(-c3ccc(O)cc3)cc(=O)c2c1O)C(C)C
Activity (PC-12 [1]): 72.12%

CN1C(=O)[C@@H](Cc2ccc(NC(=O)[C@H]3O[C@@H](Oc4cc5oc(-c6ccccc6)cc(=O)c5c(O)c4O)[C@H](O)[C@@H](O)[C@@H]3O)cc2)NC(=O)[C@H]1Cc1ccc2ccccc2c1
BBB [2]: 7.22%

CCN(CC)C(=O)Oc1ccc(-c2cc(=O)c3c(O)c(OC)c(OC)cc3o2)cc1
pIC50 (Acetylcholinesterase [3]): 5.92
pIC50 (Butyrylcholinesterase): 4.66

CCN(C)C(=O)Oc1ccc(-c2cc(=O)c3c(O)c(O)c(OC(=O)N[C@@H](Cc4ccccc4)C(=O)OC(C)(C)C)cc3o2)cc1
Activity [4]: 84.2%
pIC50 (Acetylcholinesterase [5]): 5.22
inhibition [6]: 86.2%
inhibition [7]: 89.2%
pIC50 (Acetylcholinesterase [8]): 5.33
pIC50 (Acetylcholinesterase [9]): 5.10
Activity [10]: 78.7%

COc1c(O)cc2oc(-c3ccccc3Br)cc(=O)c2c1O
pEC50 (Influenza A virus): 5.40

CC(C)=CCCC(C)CCOC(=O)[C@H]1O[C@@H](Oc2cc3oc(-c4ccccc4)cc(=O)c3c(O)c2O)[C@H](O)[C@@H](O)[C@@H]1O (stereo not given in full)
MIC (Staphylococcus aureus): 800 µM (≈ 468 µg/mL)
MIC (Escherichia coli): 3200 µM (≈ 1870 µg/mL)
MIC (Candida albicans): 400 µM (≈ 234 µg/mL)

COc1c(O)cc2oc(-c3ccc(O)cc3)cc(=O)c2c1O [HISPIDULIN]
pIC50 [11]: 4.72
solubility [12]: 15.3 µg/mL (≈ 51.1 µM)
inhibition at 50 µM (PC-12 [13]): 94.2%

O=C(NC(Cc1ccccc1)C(=O)Oc1c(O)cc2oc(-c3ccccc3)cc(=O)c2c1O)OCc1ccccc1 (stereo not given)
pEC50 (SH-SY5Y [14]): 5.37
pEC50 (SH-SY5Y [15]): 4.61

COc1cc2oc(-c3ccc(NCCNc4c5c(nc6cc(Cl)ccc46)CCCC5)cc3)cc(=O)c2c(OC)c1OC
pIC50 (Acetylcholinesterase [16]): 5.33

COC(=O)c1cc(Br)ccc1OCCCOc1ccc(-c2cc(=O)c3c(OC)c(OC)c(OC)cc3o2)cc1
pIC50 (MGC-803): 4.77
pIC50 (HGC-27): 4.99

O=c1cc(-c2cccc(-c3ccc(O)cc3)c2)oc2cc(O)cc(O)c12
inhibition [17]: 77.5%

COc1c(C(C)c2ccc(O)cc2O)cc2oc(-c3ccccc3)cc(=O)c2c1O (stereo not given)
IC50 (Alpha glucosidase [18]): 39.21 µM

COc1cc2oc(-c3ccc(N)cc3)cc(=O)c2c(OC)c1OC
Activity (HepG2): <2%
Activity (DU-145): 60%

CCN(CCCCOc1ccc(-c2cc(=O)c3c(O)c(OC)c(OC)cc3o2)cc1)Cc1ccccc1OC
IC50 (Alpha glucosidase [19]): 25.78 µM

CC(c1cc(O)c2c(=O)cc(-c3ccccc3)oc2c1)c1ccc(O)cc1O (stereo not given)
IC50 (Alpha glucosidase [18]): 44.11 µM

COc1c(O)cc2oc(-c3cccc(Br)c3)cc(=O)c2c1O
pEC50 (Influenza A virus): 5.35
